Like-named read-outs stand apart in the source and are kept apart here.
Key:
COX-2 = molecular target: T1, COX-2 (Homo sapiens, UniProt P35354); assay: Cyclooxygenase COX-2 inhibition assay; assay type: biochemical; settings: for inhibition at 62.5 µg/mL: 62.50 μg/mL; for inhibition at 1000 µg/mL: 1,000 µg/mL
T1 construct: purchased Sigma-Aldrich (local distributor) C0858
T1 sequence (P35354 18-604): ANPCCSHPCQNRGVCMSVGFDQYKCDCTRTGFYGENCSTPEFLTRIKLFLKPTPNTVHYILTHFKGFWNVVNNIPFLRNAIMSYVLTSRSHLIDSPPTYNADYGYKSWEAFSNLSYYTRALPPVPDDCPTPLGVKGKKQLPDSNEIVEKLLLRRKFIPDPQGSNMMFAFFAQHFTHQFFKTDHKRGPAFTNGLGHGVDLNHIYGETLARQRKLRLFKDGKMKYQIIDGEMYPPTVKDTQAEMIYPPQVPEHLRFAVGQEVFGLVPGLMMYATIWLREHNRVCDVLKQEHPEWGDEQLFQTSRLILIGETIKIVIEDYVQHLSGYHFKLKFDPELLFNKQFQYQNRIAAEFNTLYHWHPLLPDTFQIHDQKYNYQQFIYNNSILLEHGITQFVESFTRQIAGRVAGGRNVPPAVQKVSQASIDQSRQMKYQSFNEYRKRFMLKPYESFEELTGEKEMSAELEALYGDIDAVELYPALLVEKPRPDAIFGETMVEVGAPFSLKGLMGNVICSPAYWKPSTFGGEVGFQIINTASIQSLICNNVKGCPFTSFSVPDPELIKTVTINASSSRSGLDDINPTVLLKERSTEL
Description: The COX-2 enzyme solution with 300 U/mL concentrations was formed. The enzyme solution (10 µL) was maintained on ice up to 10 min for activation. Moreover, this solution was added to a 50 µL co-factor solution containing 1 mM hematin, 0.9 mM glutathione, and 0.24 mM N,N,N,N-tetramethyl-p-phenylenediamine dihydrochloride (TMPD) in 0.1 M Tris HCl buffer at pH 8.0. […] Likewise, 30 mM of arachidonic acid (20 µL) was mixed for initiating the reaction and incubated for 4–5 min. Following incubation, absorbance of the samples was determined using a UV-visible spectrophotometer at 570 nm. The percentage inhibition of the COX-2 enzyme was determined through the absorbance value per unit time. Enzyme inhibition against various concentrations of investigated samples was used to calculate the IC50 values.

COX-1 = COX-1 (Ovis aries, UniProt P05979); assay: Cyclooxygenase COX-1 inhibition assay; assay type: biochemical; settings: for inhibition at 62.5 µg/mL / inhibition at 125 µg/mL / inhibition at 500 µg/mL: read-out: % COX-1 inhibition; for inhibition at 1000 µg/mL: 1,000 µg/mL
[1] = ABTS free radical scavenging assay
Description: The ABTS anti-radicals’ analysis was carried out according to [Shah et al. (2015)]. The ABTS solution was prepared by dissolving ABTS salt (192 mg) in distilled H2O, transferred to a flask (50 mL), and volume was adjusted. Thereafter, 1 mL of the preceding solution was added to 17 µL of K₂S₂O₈ (140 mM) and placed in the dark for 24 h s. The experiment’s ultimate ABTS dilution was achieved by mixing 1 mL of the reaction mixture with 50 mL of methanol. The ABTS solution (190 µL) was mixed with the sample solution (10 µL) and added to 96-well plates, which were then incubated at room temperature in dark for 2 h. Following incubation, the measurement of ABTS color intensity was conducted using a microplate reader at 734 nm. Positive control solutions were prepared at values of 1,000–62.5 µM. The percentage of ABTS scavenging was determined by using the following equation: % ABTS scavenging=Control−Sample/control×100.

[2] = DPPH free radical scavenging assay
Description: The DPPH (anti-radicals) investigation was carried out according to our earlier reported protocols. Initially, a methanolic DPPH solution was prepared with a concentration of 0.1%. Subsequently, 100 µL of this solution was mixed with an equal volume of the test samples (100 µL) in 96-well plates, following a 30-min incubation period at 25°C ± 3 °C in the dark. Solutions with concentrations ranging from […] were prepared. Five concentrations of 1,000, 500, 250, 125, and 62.5 µM of the Trolox methanolic solution ([…]) were formed. A color reduction in DPPH was observed after incubation; a microplate reader was used, and absorbance was measured at 540 nm ([Mahnashi et al., 2022a]; [Huneif et al., 2022]). The percentage of scavenging was determined by the formula: Scavenging effect %=control absorbance−sample absorbance/control absorbance×100.

Sequence of COX-1 (P05979 25-600): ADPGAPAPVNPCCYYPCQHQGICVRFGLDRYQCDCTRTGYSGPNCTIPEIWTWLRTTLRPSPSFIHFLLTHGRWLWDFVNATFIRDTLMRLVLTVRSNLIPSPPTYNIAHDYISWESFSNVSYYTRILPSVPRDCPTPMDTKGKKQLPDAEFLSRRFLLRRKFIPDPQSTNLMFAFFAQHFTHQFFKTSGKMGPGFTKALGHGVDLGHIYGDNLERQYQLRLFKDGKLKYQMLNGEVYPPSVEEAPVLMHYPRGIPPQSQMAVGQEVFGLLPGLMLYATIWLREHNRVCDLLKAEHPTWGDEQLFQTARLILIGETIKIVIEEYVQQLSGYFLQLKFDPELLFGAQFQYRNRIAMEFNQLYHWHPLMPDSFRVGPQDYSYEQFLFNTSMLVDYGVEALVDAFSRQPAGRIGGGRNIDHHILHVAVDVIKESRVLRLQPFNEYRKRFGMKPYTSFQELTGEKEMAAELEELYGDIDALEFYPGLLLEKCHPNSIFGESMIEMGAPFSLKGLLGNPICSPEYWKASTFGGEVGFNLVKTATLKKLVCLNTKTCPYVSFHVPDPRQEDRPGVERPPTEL

SMILES | IC50 (COX-2) | inhibition at 62.5 µg/mL (COX-2) | inhibition at 125 µg/mL (COX-2) | inhibition at 250 µg/mL (COX-2) | inhibition at 500 µg/mL (COX-2) | inhibition at 1000 µg/mL (COX-2) | inhibition at 62.5 µg/mL (COX-1; 62.50 μg/mL) | inhibition at 125 µg/mL (COX-1; 125 µg/mL) | ABTS IC50 [1] | ABTS % inhibition ([1]; 62.5 µg/mL) | ABTS % inhibition ([1]; 125 µg/mL) | ABTS % inhibition ([1]; 250 µg/mL) | ABTS % inhibition ([1]; 500 µg/mL) | ABTS % inhibition ([1]; 1,000 µg/mL) | DPPH IC50 [2] | DPPH % inhibition ([2]; 62.5 µg/mL) | DPPH % inhibition ([2]; 125 µg/mL) | DPPH % inhibition ([2]; 250 µg/mL) | DPPH % inhibition ([2]; 500 µg/mL) | DPPH % inhibition ([2]; 1,000 µg/mL) | other results
Cc1cnc(O)nc1O [Compound 1, 5-methylpyrimidine-24,4-diol] | 84.8 µM | 61.1 ± 0.7% | 66.4 ± 0.7% | 72.7 ± 0.51% | 78.83 ± 0.73% | 83.13 ± 0.8% | 45.8 ± 0.9% | 55.4 ± 0.2% | 0.98 µg/mL | 75.90 ± 0.48 % | 79.03 ± 0.48 % | 84.90 ± 0.96 % | 87.65 ± 1.34 % | 91.58 ± 1.12 % | 0.90 µg/mL | 75.00 ± 1.15 % | 78.67 ± 0.89 % | 83.00 ± 0.58 % | 87.03 ± 0.23 % | 93.33 ± 0.49 % | inhibition at 250 µg/mL (COX-1): 60.6 ± 0.63%; inhibition at 500 µg/mL (COX-1; 500 µg/mL): 66.5 ± 0.9%; inhibition at 1000 µg/mL (COX-1): 73.1 ± 1.04%
CC1=C(O)C(=O)C(O)CO1 (stereo not shown) [Compound 2, 3,5-dihydroxy-6-methyl-2,3-dihydro-4H-pyran-4-one] | 101 µM | 58.12 ± 0.34% | 63.47 ± 0.49% | 68.75 ± 0.14% | 75.59 ± 0.3% | 80.85 ± 0.18% | 40.8 ± 1.06% | 46.4 ± 0.62% | 03 µg/mL | 68.52 ± 0.38 % | 72.64 ± 0.16 % | 77.61 ± 1.70 % | 81.94 ± 0.45 % | 86.47 ± 0.22 % | 04 µg/mL | 72.74 ± 0.61 % | 76.54 ± 0.50 % | 81.48 ± 0.64 % | 86.86 ± 0.60 % | 91.62 ± 0.74 % | inhibition at 250 µg/mL (COX-1): 54.6 ± 0.58%; inhibition at 500 µg/mL (COX-1; 500 µg/mL): 65.29 ± 0.41%; inhibition at 1000 µg/mL (COX-1): 71.37 ± 0.56%
Cc1ccc(C(C)C)c(O)c1 [Compound 3, 2-isopropyl-5-methylphenol] | 145 µM | 53 ± 0.57% | 62.5 ± 0.44% | 66.33 ± 0.33% | 74.7 ± 1.2% | 79 ± 0.16% | – | – | 21 µg/mL | 65.00 ± 0.30 % | 72.54 ± 0.50 % | 76.69 ± 0.77 % | 83.67 ± 0.61 % | 87.79 ± 0.63 % | 17 µg/mL | 62.98 ± 0.72 % | 67.90 ± 0.96 % | 72.91 ± 0.88 % | 77.08 ± 0.47 % | 81.03 ± 0.35 % | inhibition at 62.5 µg/mL (COX-1): 41.3 ± 1.01%; inhibition at 125 µg/mL (COX-1): 46.7 ± 0.78%; inhibition at 500 µg/mL (COX-1): 57.9 ± 0.97%
C=Cc1ccc(O)cc1OC [Compound 4, 3-methoxy-4-vinylphenol] | 135 µM | 55.56 ± 0.52% | 64.78 ± 0.6% | 71.46 ± 0.53% | 77.68 ± 0.63% | 85.72 ± 0.79% | 33 ± 1.15% | 42.7 ± 0.89% | 42 µg/mL | 57.00 ± 1.15 % | 61.67 ± 0.89 % | 65.00 ± 0.58 % | 72.03 ± 0.23 % | 75.33 ± 0.49 % | 40 µg/mL | 58.15 ± 0.22 % | 63.36 ± 0.71 % | 68.39 ± 0.35 % | 73.42 ± 0.12 % | 77.73 ± 0.03 % | inhibition at 250 µg/mL (COX-1): 49 ± 0.58%; inhibition at 500 µg/mL (COX-1; 500 µg/mL): 63.03 ± 0.23%; inhibition at 1000 µg/mL (COX-1): 71.33 ± 0.49%
C=Cc1cc(OC)c(O)c(OC)c1 [Compound 5, 2,6-dimethoxy-4-vinylphenol] | 217 µM | 46.9 ± 0.42% | 56.4 ± 0.63% | 61 ± 0.33% | 66.2 ± 0.73% | – | 29.15 ± 0.22% | 41.4 ± 0.71% | 30 µg/mL | 60.59 ± 0.30 % | 63.08 ± 1.04 % | 68.76 ± 0.61 % | 74.31 ± 0.58 % | 79.49 ± 0.60 % | 16 µg/mL | 60.48 ± 0.23 % | 63.99 ± 0.19 % | 67.05 ± 0.13 % | 71.75 ± 0.21 % | 75.28 ± 0.42 % | inhibition at 250 µg/mL (COX-1): 47.39 ± 0.35%; inhibition at 500 µg/mL (COX-1; 500 µg/mL): 57.42 ± 0.12%; inhibition at 1000 µg/mL (COX-1): 67.73 ± 0.03%

Reference: paper PMC10937556, “Phenolic phytochemistry, in vitro, in silico, in vivo, and mechanistic anti-inflammatory and antioxidant evaluations of Habenaria digitata” (Frontiers in Pharmacology, 2024)
